# Measurements taken from patent publication US5939387A, “Method of treating insulin resistance” (Eli Lilly and Company, priority 1996, dated 1999).
# *: point of attachment. p‑methylhippuroyl = Cc1ccc(C(=O)NCC(=O)*)cc1
# How the values were obtained:
# [1] = system: Male Fischer 344 rats 26 months of age; test: Aged Rat Study (oral glucose tolerance test); type: in vivo; details: 2 μg/kg sc daily for 6 weeks
# Description: Animals: Male Fischer 344 rats 26 months of age were randomly assigned to three treatment groups (8 animals per group). Animals were housed in individual cages in a temperature and humidity-controlled environment and exposed to 12 h light/12 h dark lighting schedule (lights on at 0600 h). Animals were fed ad libitum on a daily basis.
# Treatments: Animals received daily injection (sc., 0.5 ml at 0700 h) of vehicle; active compound, 2 μg/kg body weight for six weeks. At the end of the treatment period and one day prior to testing, food was removed and animals were fasted for 16 hours. Glucose tolerance test was initiated at 0700 h in conscious and freely moving rats. Blood was collected by tail clipping method. A control blood sample (0.2 mL) was collected before ingesting glucose (2.5 g/kg body weight). Subsequent blood samples were collected at 30, 60, 90 and 120 min. after glucose ingestion. Blood was collected on ice and glucose concentrations were determined by bichromatic analysis using the IL Monarch Chemistry Systems (Cat. # 35199, Instrumentation Laboratory, Mass.). Plasma was separated and samples were kept frozen (-20° C.) until assay for insulin concentrations using double antibody radioimmuonoassay. […]
# Area under the response curve was calculated using the trapezoidal method and data were analyzed by ANOVA with Duncan's multiple range test.
# [2] = system: Zucker Diabetic Fatty (ZDF/Gmi-fa/fa) male rats; test: ZDF Male Rat Assay; type: in vivo; details: for Total Body Mass, final weight / Epididymal Fat weight / Lean Mass, final weight: ZDF rats; for Total Body Mass, final weight: mean of 8; for Epididymal Fat weight / Lean Mass, final weight: 6 to 14 weeks of age
# From the text: A growth hormone releasing agent is continuously administered to Zucker diabetic male rats subcutaneously by use of an "Alzet" mini osmotic pump. The treatment was started at approximately 6 weeks of age and continued for approximately 6-8 weeks. The experiment was designed to allow the study of changes in the typical plasma glucose and insulin level profiles with the progression of the diabetic disease state.
# Zucker Diabetic Fatty (ZDF/Gmi™-fa/fa) male rats were obtained from Genetic Models Inc. (Indianapolis, Ind.). The rats were maintained on Purina Formula 5008 rat chow (Purina Mills, Inc., St. Louis, Mo.) and housed in a light controlled room of alternating 12 hour cycles of light and dark. Rats were singly housed and given free access to food and water. At 5 weeks of age, an oral glucose tolerance test (OGTT: 16 hr fast, oral glucose concentration at 2.5 grams/kg body weight; Butler dextrose solution 50%, lot # 3342, Ft. Collins, Colo.; time points at 0, 30, 60, and 120 minutes) was given to each rat and their plasma assayed for glucose and insulin levels. At 6 weeks of age Alzet minipumps, containing a 1.5 inch polyethylene tube extensions (Model 2001, lot # 040401, 1.0 μl/hr, 7 days; Alza Corporation, Palo Alto, Calif.) were implanted subcutaneously. Animals were anesthetized with isoflurane at approximately 2-3% in oxygen. Each rat was shaved and a Povidone Iodine scrub was used at the site of implantation. A small incision was made above and just posterior to the shoulder. A small pocket was made and the pump placed in so the delivery port was away from the incision. The incision was then closed with wound clips and the rat observed and kept warm until awake. At the end of 7 days the pumps were removed from the rat and a new pump implanted subcutaneously as previously described. Pumps contained vehicle (PBS) or a growth hormone releasing agent (8 rats/group).
# The GH releasing agent was prepared at concentrations of 625 and 62.5 μg/mL and loaded into Alzet pumps using sterile techniques. Body weight and food consumption were monitored once a week. Rats were bled from the tail for plasma glucose, insulin, and growth hormone levels weekly. One week prior to sacrificing the rats, an I.P. injection of tetracycline was given to each rat and then again the day before sacrificing (20 mg/mL; 0.5 mL/animal) to determine bone growth.
# Assays: Plasma glucose concentrations were determined by the glucose hexokinase method (IL Test GLucose, lot # I1040502; Instrumentation Laboratory Company, Lexington, Mass.) with a model 2000 Monarch (Instrumentation Laboratory Company, Lexington, Mass.). Insulin was determined with a Coat-a-Count kit (Diagnostic Products Corporation, Los Angeles, Calif.) using a rat insulin standard (Lilly Research Laboratories, Indianapolis, Ind.). Glucagon was assayed with a double antibody procedure using guinea pig anti-glucagon (Catalog no. 1032; Linco Research, St. Louis, Mo.), goat anti-guinea pig (lot # T67-7GZ-237); Lilly Research Laboratories, Indianapolis, Ind.) and ^125 I-glucagon (DuPont New England Nuclear, Wilmington, Del.). Growth hormone was assayed using rat growth hormone standard (purchased from Parlow, Torrance Calif.; rGH-RP-2, lot AFP-3190B), anti rGH (purchased from Parlow, Torrance Calif.; rGH-s-r, lot AFP411S), ^125 I-rGH (Corning-Hazelton, Vienna, Va.) and protein A IGSL100 (Enzyme Center, Malden, Mass.).
# [3] = age 6 weeks, 0.001 μg/min continuous infusion
# [4] = age 6 weeks, 0.01 μg/min continuous infusion
# [5] = age 7 weeks, 0.001 μg/min continuous infusion
# [6] = age 7 weeks, 0.01 μg/min continuous infusion
# [7] = age 8 weeks, 0.001 μg/min continuous infusion
# [8] = age 8 weeks, 0.01 μg/min continuous infusion
# [9] = age 9 weeks, 0.001 μg/min continuous infusion
# [10] = age 9 weeks, 0.01 μg/min continuous infusion
# [11] = age 10 weeks, 0.001 μg/min continuous infusion
# [12] = age 10 weeks, 0.01 μg/min continuous infusion
# [13] = age 11 weeks, 0.001 μg/min continuous infusion
# [14] = age 11 weeks, 0.01 μg/min continuous infusion
# [15] = age 12 weeks, 0.001 μg/min continuous infusion
# [16] = age 12 weeks, 0.01 μg/min continuous infusion
# [17] = age 13 weeks, 0.001 μg/min continuous infusion
# [18] = age 13 weeks, 0.01 μg/min continuous infusion
substance,measurement,setting,value
"p-methyl hippuroyl Leu(27) (1-44)OH hGHRH ({p‑methylhippuroyl}-YADAIFTNSYRKVLGQLSARKLLQDILSRQQGESNQERGARARL-OH) [GHRH Analog, functional analog of GHRH disclosed in EP 511 003, agent capable of stimulating growth hormone release]","Plasma Glucose, oral glucose tolerance test",[1]; time 0 min,104.2 mg/dL
same,"Plasma Insulin, oral glucose tolerance test",[1]; time 0 min,1.26 ng/mL
same,"Plasma Glucose, oral glucose tolerance test",[1]; time 30 min,148.4 mg/dL
same,"Plasma Insulin, oral glucose tolerance test",[1]; time 30 min,1.64 ng/mL
same,"Plasma Glucose, oral glucose tolerance test",[1]; time 60 min,154.8 mg/dL
same,"Plasma Insulin, oral glucose tolerance test",[1]; time 60 min,1.92 ng/mL
same,"Plasma Glucose, oral glucose tolerance test",[1]; time 120 min,148.1 mg/dL
same,"Plasma Insulin, oral glucose tolerance test",[1]; time 120 min,1.41 ng/mL
same,"AUC, area under the plasma glucose vs. time curve",[1]; trapezoidal method,"16,833.80 mg. min/dL"
same,"AUC, area under the plasma insulin vs. time curve",[1]; trapezoidal method,196.25 ng·min/mL
same,"Total Body Mass, final weight",[2]; 0.001 μg/min continuous sc infusion from 6 to 14 weeks of age,327.06 g
same,Epididymal Fat weight,[2]; 0.001 μg/min infusion,0.25 g
same,"Lean Mass, final weight",[2]; 0.001 μg/min infusion,327.06 g
same,"Total Body Mass, final weight",[2]; 0.01 μg/min continuous sc infusion from 6 to 14 weeks of age,388.16 g
same,Epididymal Fat weight,[2]; 0.01 μg/min infusion,0.33 g
same,"Lean Mass, final weight",[2]; 0.01 μg/min infusion,388.16 g
same,Mean Plasma Glucose,[2]; [3],139.99 mg/dL
same,Mean Plasma Insulin,[2]; [3],9.81 ng/mL
same,Mean Plasma Glucose,[2]; [4],139.86 mg/dL
same,Mean Plasma Insulin,[2]; [4],11.21 ng/mL
same,Mean Plasma Glucose,[2]; [5],155.34 mg/dL
same,Mean Plasma Insulin,[2]; [5],23.91 ng/mL
same,Mean Plasma Glucose,[2]; [6],148.68 mg/dL
same,Mean Plasma Insulin,[2]; [6],24.76 ng/mL
same,Mean Plasma Glucose,[2]; [7],183.41 mg/dL
same,Mean Plasma Insulin,[2]; [7],27.33 ng/mL
same,Mean Plasma Glucose,[2]; [8],165.01 mg/dL
same,Mean Plasma Insulin,[2]; [8],26.81 ng/mL
same,Mean Plasma Glucose,[2]; [9],331.91 mg/dL
same,Mean Plasma Insulin,[2]; [9],21.11 ng/mL
same,Mean Plasma Glucose,[2]; [10],215.49 mg/dL
same,Mean Plasma Insulin,[2]; [10],24.23 ng/mL
same,Mean Plasma Glucose,[2]; [11],389.18 mg/dL
same,Mean Plasma Insulin,[2]; [11],20.18 ng/mL
same,Mean Plasma Glucose,[2]; [12],235.91 mg/dL
same,Mean Plasma Insulin,[2]; [12],27.85 ng/mL
same,Mean Plasma Glucose,[2]; [13],392.65 mg/dL
same,Mean Plasma Insulin,[2]; [13],20.98 ng/mL
same,Mean Plasma Glucose,[2]; [14],232.89 mg/dL
same,Mean Plasma Insulin,[2]; [14],30.05 ng/mL
same,Mean Plasma Glucose,[2]; [15],496.75 mg/dL
same,Mean Plasma Insulin,[2]; [15],21.48 ng/mL
same,Mean Plasma Glucose,[2]; [16],317.11 mg/dL
same,Mean Plasma Insulin,[2]; [16],36.45 ng/mL
same,Mean Plasma Glucose,[2]; [17],446.03 mg/dL
same,Mean Plasma Insulin,[2]; [17],16.29 ng/mL
same,Mean Plasma Glucose,[2]; [18],248.28 mg/dL
same,Mean Plasma Insulin,[2]; [18],29.92 ng/mL
same,Mean Plasma Glucose,"[2]; age 14 weeks, 0.001 μg/min continuous infusion",461.40 mg/dL
same,Mean Plasma Glucose,"[2]; age 14 weeks, 0.01 μg/min continuous infusion",229.36 mg/dL
